Laboratory results reported in EP4624472A1, “DEGRADER INCLUDING NOVEL C-MET PROTEIN LIGAND AND PHARMACEUTICAL COMPOSITION INCLUDING SAME” (Innocure Therapeutics, Inc., priority 2022, dated 2024).

Legend:
Hs746T = test: In vitro cell viability assay (cancer cell anti-proliferative activity), Hs746T; type: cell-based; conditions: Homo sapiens; Hs746T cells, treated 72 hours
Experimental: (§1) The c-MET overexpressing human gastric cancer cell lines MKN45 and SNU638 were cultured in RPMI medium with 10% fetal bovine serum, penicillin (100 U/ml), and streptomycin ([…]), and the c-MET exon 14 skipping mutant human gastric cancer cell line Hs746T was cultured in DMEM media. The c-MET overexpressing human lung cancer cell line EBC-1 was cultured in MEM media with the addition of 10% fetal bovine serum, penicillin (100U/ml), and streptomycin ([…]). The normal cell line WI-38 derived from human lung tissue was cultured in EMEM medium with the addition of 10% fetal bovine serum, penicillin (100U/ml), and streptomycin ([…]).
(§2) The compound synthesized in accordance with the present invention was prepared with a raw material solution of 10 mM dissolved in DMSO (dimethyl sulfoxide), and was sequentially diluted and processed.
(§3) In order to evaluate the inhibitory activity on cell growth, cells were dispensed in a 96-well plate at a concentration of 5,000 cells/well and then treated with the compound of the present invention prepared at various concentrations for 72 hours. The absorbance measurement at 450 nm was calculated using the GraphicPad Prism 8.0 software. The IC50 value (concentration of the compound achieving 50% cytostatic inhibition) is the average value of the measured results. […]

EBC-1 = test: In vitro cell viability assay (cancer cell anti-proliferative activity), EBC-1; type: cell-based, human; conditions: Homo sapiens; EBC-1 cells, treated 72 hours; read-out: In vitro cell viability assay (nM) EBC-1 IC50
Experimental: as §1, §2, §3

SNU-638 = test: In vitro cell viability assay (cancer cell anti-proliferative activity), SNU-638; type: cell-based, human; conditions: Homo sapiens; SNU-638 cells, treated 72 hours; read-out: In vitro cell viability assay (nM) SNU-638 IC50
Experimental: as §1, §2, §3

c-MET [1] = molecular target: T1, c-MET (Homo sapiens, UniProt P08581, DEL964-1010); test: c-MET protein degradation (Simple Western) in Hs746T cells; type: cell-based; conditions: Hs746T (c-MET exon 14 skipping mutant), gastric cancer cell line treated 24 hours; c-MET expression normalized to GAPDH, 0.1% DMSO = 100%; read-out: In vitro cell viability assay (nM) Hs746T DC50
T1 construct: To evaluate the degradation efficacy of the compounds of the present invention for c-MET expressed in cells; endogenous in cells; host or cells: Hs746T (human gastric cancer cell line)
T1 sequence (P08581 with tags, fused parts or gaps DEL964-1010 limits assumed): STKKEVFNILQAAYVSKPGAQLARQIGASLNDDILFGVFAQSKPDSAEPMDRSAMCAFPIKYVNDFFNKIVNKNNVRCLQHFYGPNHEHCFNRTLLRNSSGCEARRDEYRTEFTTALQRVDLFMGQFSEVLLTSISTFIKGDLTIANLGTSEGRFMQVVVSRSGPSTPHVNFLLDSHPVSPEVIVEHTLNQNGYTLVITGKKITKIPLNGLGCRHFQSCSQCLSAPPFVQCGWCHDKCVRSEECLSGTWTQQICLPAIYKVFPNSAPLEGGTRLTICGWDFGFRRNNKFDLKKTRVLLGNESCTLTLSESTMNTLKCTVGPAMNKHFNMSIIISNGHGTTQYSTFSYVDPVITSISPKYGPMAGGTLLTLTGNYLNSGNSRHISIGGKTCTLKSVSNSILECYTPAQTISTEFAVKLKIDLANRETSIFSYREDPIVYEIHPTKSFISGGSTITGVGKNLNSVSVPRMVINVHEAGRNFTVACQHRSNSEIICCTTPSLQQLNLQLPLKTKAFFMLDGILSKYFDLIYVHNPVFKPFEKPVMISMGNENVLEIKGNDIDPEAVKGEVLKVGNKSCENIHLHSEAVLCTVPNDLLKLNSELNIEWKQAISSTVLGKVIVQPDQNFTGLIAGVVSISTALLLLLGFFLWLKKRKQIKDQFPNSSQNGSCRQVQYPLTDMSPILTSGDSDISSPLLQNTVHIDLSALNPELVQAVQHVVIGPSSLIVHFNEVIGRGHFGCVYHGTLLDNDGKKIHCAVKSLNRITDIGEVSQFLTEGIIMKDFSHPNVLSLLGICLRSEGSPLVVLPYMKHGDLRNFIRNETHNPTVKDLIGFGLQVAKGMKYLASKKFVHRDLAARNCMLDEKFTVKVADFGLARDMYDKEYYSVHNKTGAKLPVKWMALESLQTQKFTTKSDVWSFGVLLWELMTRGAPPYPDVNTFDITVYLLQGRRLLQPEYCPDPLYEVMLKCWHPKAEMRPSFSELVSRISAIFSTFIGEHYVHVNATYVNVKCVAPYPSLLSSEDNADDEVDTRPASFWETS
T1 sequence (P08581 25-307 partner limits assumed): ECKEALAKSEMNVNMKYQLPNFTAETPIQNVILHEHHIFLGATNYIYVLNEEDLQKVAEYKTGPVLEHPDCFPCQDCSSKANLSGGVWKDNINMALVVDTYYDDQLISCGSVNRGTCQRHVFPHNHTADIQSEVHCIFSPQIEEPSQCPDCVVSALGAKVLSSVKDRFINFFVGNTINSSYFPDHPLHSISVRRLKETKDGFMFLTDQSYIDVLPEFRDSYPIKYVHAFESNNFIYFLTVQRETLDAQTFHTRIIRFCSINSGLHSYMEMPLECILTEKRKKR
Experimental: as §1, §2
(§4) To evaluate the degradation efficacy of the compounds of the present invention for c-MET expressed in cells, cells were dispensed in a 12-well plate at a concentration of 2 × 10^5 cells/well, and then gastric cancer cell lines were treated with samples for 24 hours and lung cancer cell lines were treated for 48 hours.
(§5) To perform a western blotting assay to confirm protein expression, cells treated with a compound treated with 40 µL of RIPA buffer with a protease inhibitor for 30 minutes, collected cell lysate using a scraper on ice, and centrifuged at 4°C 15,000 rpm for 30 min to obtain a protein-containing supernatant.
(§6) Protein expression was then measured using the Simple Western Automated Western Blot System Abby instrument using 3 µg of protein for each sample. SDS and heat-induced denaturation proteins were separated by molecular weight, attached to the capillary, reacted with anti-c-MET or anti-GAPDH antibodies, which are primary antibodies, and then reacted with HRP-conjugated secondary antibodies, and analyzed the protein expression signal with compass software.
(§7) Protein expression was normalized based on the expression value of GAPDH, and the protein expression amount in each sample was measured as a percentage (%) based on 100% of samples treated with 0.1% DMSO carrier, and DC50 (concentration of a compound where 50% protein inhibition is achieved) was calculated from the change in protein expression amount due to compound treatment.

c-MET [2] = molecular target: T2, c-MET (Homo sapiens, UniProt P08581); test: c-MET protein degradation (Simple Western) in SNU-638 cells; type: cell-based; design: To evaluate the degradation efficacy of the compounds of the present invention for c-MET expressed in cells; endogenous in cells; conditions: SNU-638, gastric cancer cell line treated 24 hours; c-MET expression normalized to GAPDH, 0.1% DMSO = 100%; read-out: In vitro cell viability assay (nM) SNU-638 DC50
T2 sequence (P08581 25-1390): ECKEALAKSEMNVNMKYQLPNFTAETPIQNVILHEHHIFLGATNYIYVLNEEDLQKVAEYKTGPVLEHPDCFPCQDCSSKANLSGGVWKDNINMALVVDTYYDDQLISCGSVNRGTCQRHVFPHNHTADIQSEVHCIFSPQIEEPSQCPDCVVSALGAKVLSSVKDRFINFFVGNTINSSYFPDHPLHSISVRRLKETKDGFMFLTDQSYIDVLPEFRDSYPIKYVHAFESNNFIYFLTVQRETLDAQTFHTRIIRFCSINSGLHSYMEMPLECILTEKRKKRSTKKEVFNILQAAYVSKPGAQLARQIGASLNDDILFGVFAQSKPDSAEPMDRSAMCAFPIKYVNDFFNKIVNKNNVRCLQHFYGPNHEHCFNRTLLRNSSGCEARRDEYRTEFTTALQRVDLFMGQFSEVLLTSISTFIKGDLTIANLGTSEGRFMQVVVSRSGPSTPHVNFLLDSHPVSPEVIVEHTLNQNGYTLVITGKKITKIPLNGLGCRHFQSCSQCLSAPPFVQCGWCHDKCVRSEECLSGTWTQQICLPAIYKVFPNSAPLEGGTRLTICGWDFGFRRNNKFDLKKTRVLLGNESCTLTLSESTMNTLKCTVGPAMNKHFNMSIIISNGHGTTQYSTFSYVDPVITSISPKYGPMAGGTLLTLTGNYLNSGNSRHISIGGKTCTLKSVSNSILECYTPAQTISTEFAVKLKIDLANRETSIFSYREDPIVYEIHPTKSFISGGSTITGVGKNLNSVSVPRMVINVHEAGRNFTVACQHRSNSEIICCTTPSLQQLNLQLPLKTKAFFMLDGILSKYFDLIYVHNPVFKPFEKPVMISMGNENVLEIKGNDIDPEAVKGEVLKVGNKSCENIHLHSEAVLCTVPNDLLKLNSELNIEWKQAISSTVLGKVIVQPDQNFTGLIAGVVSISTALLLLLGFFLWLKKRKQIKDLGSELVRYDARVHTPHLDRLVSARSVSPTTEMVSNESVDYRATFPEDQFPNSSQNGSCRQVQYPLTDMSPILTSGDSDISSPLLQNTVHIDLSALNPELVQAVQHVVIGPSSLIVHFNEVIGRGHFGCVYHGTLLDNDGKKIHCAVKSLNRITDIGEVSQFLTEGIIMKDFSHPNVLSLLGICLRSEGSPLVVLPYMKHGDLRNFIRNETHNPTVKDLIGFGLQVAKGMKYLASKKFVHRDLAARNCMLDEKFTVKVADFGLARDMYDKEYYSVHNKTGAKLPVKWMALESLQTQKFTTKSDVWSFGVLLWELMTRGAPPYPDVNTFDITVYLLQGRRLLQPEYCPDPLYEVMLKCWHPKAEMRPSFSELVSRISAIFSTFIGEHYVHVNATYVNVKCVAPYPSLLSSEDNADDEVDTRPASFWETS
Experimental: as §1, §2, §4, §5, §6, §7

c-MET [3] = molecular target: T2, c-MET; test: c-MET protein degradation (Simple Western) in EBC-1 cells; type: cell-based; design: To evaluate the degradation efficacy of the compounds of the present invention for c-MET expressed in cells; endogenous in cells; host or cells: EBC-1 (human lung cancer cell line); conditions: EBC-1, lung cancer cell line treated 48 hours; c-MET expression normalized to GAPDH, 0.1% DMSO = 100%; read-out: In vitro cell viability assay (nM) EBC-1 DC50
Experimental: as §1, §2, §4, §5, §6, §7

With Cn1cc(-c2cnc3c(nnn3C[C@@H]3CN(c4ncc(N5CC(CN6CCN(c7ccc8c(=O)n(C9CCC(=O)NC9=O)ncc8c7)CC6)C5)cn4)CCO3)n2)cn1 (stereo partly drawn) [Example D-1, 3-(6-(4-((1-(2-((S)-2-((5-(1-methyl-1H-pyrazole-4-yl)-1H-[1,2,3]triazolo[4,5-b]pyrazine-1-yl)methyl)morpholine-5-il)azetidin-3-il)methyl)piperazine-1-il)piperazine-1-il)1-oxopthalazine-2(1H)-day)piperidine-2,6-dione] the IC50 (Hs746T) was ≤ 100 nM, the IC50 (EBC-1) was ≤ 100 nM and the IC50 (SNU-638) was ≤ 100 nM. For the same compound, the DC50 (c-MET [1]) was ≤ 100 nM, the DC50 (c-MET [2]) was > 1000 nM and the DC50 (c-MET [3]) was ≤ 100 nM.
Cc1nn(C2CCC(=O)NC2=O)c(=O)c2ccc(N3CCN(CC4CCN(CC5CN(c6cnc(N7CCO[C@H](Cn8nnc9nc(-c%10cnn(C)c%10)cnc98)C7)nc6)C5)CC4)CC3)cc12 (stereo partly drawn) [Example D-4] was tested, and the IC50 (Hs746T) was ≤ 100 nM, the IC50 (EBC-1) was ≤ 100 nM and the IC50 (SNU-638) was ≤ 100 nM. The DC50 (c-MET [1]) was ≤ 100 nM, the DC50 (c-MET [2]) was ≤ 1000 nM and the DC50 (c-MET [3]) was ≤ 100 nM.
In the case of Cn1cc(-c2cnc3c(nnn3C[C@@H]3CN(c4ncc(N5CC(CN6CCN(CC7CCN(c8ccc(NC9CCC(=O)NC9=O)cc8F)CC7)CC6)C5)cn4)CCO3)n2)cn1 (stereo partly drawn) [Example D-5], the IC50 (Hs746T) is reported as > 1000 nM, the IC50 (EBC-1) is reported as ≤ 100 nM and the IC50 (SNU-638) is reported as ≤ 100 nM. For the same compound, the DC50 (c-MET [1]) was > 1000 nM, the DC50 (c-MET [2]) was > 1000 nM and the DC50 (c-MET [3]) was > 1000 nM.
For Cc1nn(C2CCC(=O)NC2=O)c(=O)c2ccc(N3CCO[C@@H](COc4cnc(-c5cccc(Cn6nc(-c7cccc(C#N)c7)ccc6=O)c5)nc4)C3)cc12 (stereo partly drawn) [Example E-1], the IC50 (Hs746T) was ≤ 100 nM, the IC50 (EBC-1) was ≤ 100 nM and the IC50 (SNU-638) was ≤ 100 nM. The DC50 (c-MET [1]) was ≤ 100 nM, the DC50 (c-MET [2]) was > 1000 nM and the DC50 (c-MET [3]) was ≤ 100 nM.
For N#Cc1cccc(-c2ccc(=O)n(Cc3cccc(-c4ncc(OC[C@H]5CN(c6ccc7c(=O)n(C8CCC(=O)NC8=O)ncc7c6)CCO5)cn4)c3)n2)c1 (stereo partly drawn) [Example E-2, 3-(1-(3-(5-(((2R)-4-(2-(2,6-dioxopiperidin-3-yl)-1-oxo-1,2-dihydrophthalazine-6-yl)morpholine-2-yl)methoxy)pyrimidin-2-yl)benzyl)6-oxo-1,6-dihydropyridazine-3-il)benzonitrile], the IC50 (Hs746T) was ≤ 100 nM, the IC50 (EBC-1) was ≤ 100 nM and the DC50 (c-MET [1]) was ≤ 100 nM. For the same compound, the DC50 (c-MET [3]) was ≤ 100 nM.
With N#Cc1cccc(-c2ccc(=O)n(Cc3cccc(-c4ncc(OCCN5CCN(c6ccc7c(=O)n(C8CCC(=O)NC8=O)ncc7c6)CC5)cn4)c3)n2)c1 (stereo not drawn) [Example E-4] the IC50 (Hs746T) was ≤ 100 nM, the IC50 (EBC-1) was ≤ 100 nM and the IC50 (SNU-638) was ≤ 100 nM. For the same compound, the DC50 (c-MET [1]) was ≤ 100 nM, the DC50 (c-MET [2]) was > 1000 nM and the DC50 (c-MET [3]) was ≤ 100 nM.
With Cc1nn(C2CCC(=O)NC2=O)c(=O)c2ccc(N3CCN(CCOc4cnc(-c5cccc(Cn6nc(-c7cccc(C#N)c7)ccc6=O)c5)nc4)CC3)cc12 (stereo not drawn) [Example E-5] the IC50 (Hs746T) was ≤ 100 nM, the IC50 (EBC-1) was ≤ 100 nM and the IC50 (SNU-638) was ≤ 100 nM. The DC50 (c-MET [1]) was ≤ 100 nM, the DC50 (c-MET [2]) was ≤ 100 nM and the DC50 (c-MET [3]) was ≤ 100 nM.
With N#Cc1cccc(-c2ccc(=O)n(Cc3cccc(-c4ncc(OCCN5CCN(c6ccc(NC7CCC(=O)NC7=O)cc6F)CC5)cn4)c3)n2)c1 (stereo not drawn) [Example E-6, 3-(1-(3-(5-(2-(4-(4-((2,6-dioxopiperidin-3-yl)amino)2-fluorophenyl)piperazine-1-yl)ethoxy)pyrimidine-2-yl)benzyl)6-oxo-1,6-dihydropyridazine-3-yl)benzonitrile] the IC50 (EBC-1) was ≤ 100 nM, the IC50 (SNU-638) was ≤ 100 nM and the DC50 (c-MET [2]) was > 1000 nM. For the same compound, the DC50 (c-MET [3]) was > 1000 nM.
For N#Cc1cccc(-c2ccc(=O)n(Cc3cccc(-c4ncc(N5CCN(CC6CN(c7ccc(NC8CCC(=O)NC8=O)cc7F)C6)CC5)cn4)c3)n2)c1 (stereo not drawn) [Example E-7], the IC50 (EBC-1) was ≤ 100 nM, the IC50 (SNU-638) was ≤ 100 nM and the DC50 (c-MET [2]) was ≤ 100 nM. The DC50 (c-MET [3]) was ≤ 100 nM.
For N#Cc1cccc(-c2ccc(=O)n(Cc3cccc(-c4ncc(N5CCN(CC6CCN(c7ccc(NC8CCC(=O)NC8=O)cc7F)CC6)CC5)cn4)c3)n2)c1 (stereo not drawn) [Example E-8], the IC50 (Hs746T) was ≤ 100 nM, the IC50 (EBC-1) was ≤ 100 nM and the IC50 (SNU-638) was ≤ 100 nM. The DC50 (c-MET [1]) was ≤ 100 nM, the DC50 (c-MET [2]) was > 1000 nM and the DC50 (c-MET [3]) was ≤ 100 nM.
